# According to EP0695746A2, “Antiviral compounds and pharmaceutical compositions” (PHARMA MAR, S.A., priority 1994, dated 1996):
# Assays:
# [1] = test system: HIV-1 p24 core antigen; assay: p24 ELISA on supernatant of the cytotoxic assay wells; type: cell-based
# Description: Secondary assays for evaluating antiviral activity included the syncytial-forming assay and p24 ELISA's. The first assay was described above. The p24 assay was performed by purchasing the p24 kit for the human immunodeficiency virus for p24 antigen assays from the Coulter Corporation, Hialeah, FL. […] The preparation of a mouse monoclonal antibody with high specificity and affinity for the viral p24 protein has allowed the development of an extremely sensitive ELISA for HIV-1 p24 core antigen.
# An assay for antiviral activity to HIV-1 was started on 10-28-93 using the cytotoxic assay as described above and HIV-1 activity was observed microscopically in this sample on day 4 of the cytotoxic assay. On day six, 10 µl of supernatant fluid were removed from the cytotoxic wells and assayed for p24. The results of the cytotoxic assay, p24 assay, and syncytia assay were: […]
# [2] = test system: CD-1 mice; assay: In vivo toxicity test, single injection
# Description: The LD₅₀ for the compound was > 150 mg/kg.
# [3] = test system: CEM-SS cells; assay: Syncytium-forming assay (Syncytia assay), toxicity in drug control wells; type: cell-based; details: Homo sapiens
# Description: (§1) The assay described above for determining viral titers of HIV-1 stock virus can be modified and used to evaluate the antiviral activity of compounds. A.5.1. Plates are treated with poly-L-lysine the same as above, and CEM-SS cells are polybrene treated. A.5.2. Dilute test compound in medium to desired concentrations. A.5.3. Add 100 µl CEM-SS cells to each well so that the final cell concentration is 50,000 cells per well. A.5.4. Add 50 µl of the test compound at each respective concentration to at least two wells, or four for one replicate assay. A.5.5. Add 50 µl growth medium to drug control wells. A.5.6. Add 50 µl HIV-1 virus to test wells at a concentration that provides approximately 100 SFU of virus per well. A.5.7. Run appropriate cell and viral controls. A.5.8. Incubate plates for 3 to 5 days. A.5.9. On day 3 to 5 cover plates with clear plastic sealers and count syncytial-forming units in the test wells and viral control wells. To determine if the test compounds have antiviral activity, compare the total number of SFU in the viral control to those enumerated in the test wells.
# [4] = test system: HIV-1 RF; assay: XTT cytoprotection assay (called Cytotoxic Assay in the tables), antiviral activity; type: cell-based
# Description: Changes were made to accommodate changes in solvent systems and drug test dilutions.
# For the cytoprotection assay CEM-SS cells and HIV-1 RF strain of virus were used. Test samples were first diluted in an appropriate solvent, and 10 to 50 µl were transferred to the test plate. If the solvent was methanol or a similar solvent, the plates were allowed to evaporate. If medium was used for dilutions the plates were covered and the volume of test sample was taken into consideration when adding cells and virus. At each test concentration 50 µl of sample were added to three wells, one for toxicity tests, one for color control, and one for antiviral activity. Assuming the solvent was evaporated, 150 µl cells are added to all wells, except the control wells for medium only, so that the cell concentration per well was 5000. Then 50 µl of HIV-1 virus was added to each test well so that the M.O.I. was approximately 0.31. For toxicity tests 50 µl of medium were added to the control well. The plates were incubated in 5% CO₂ for 6 days at 37°C. After incubation, the XTT solution was added to the plates, and after 4 hours incubation at 37°C the plates are covered with clear plastic sealers. Cell viability was measured by the visible light absorbance at 450 nm and a reference wavelength of 650 nm. Data were expressed as a percentage of formazan produced in drug test wells compared to formazan produced in wells of untreated control cells.
# Cells were maintained in the logarithmic growth state by subdividing cultures when the cell concentrations reach an upper limit of 1 x 10⁶ cells per ml.
# For antiviral assays CEM-SS cells at a cell concentration of 5.0 x 10⁵ in serum free medium were treated with polybrene at a concentration of 1 µg/ml and incubated for 30 to 60 minutes at 37°C. Polybrene medium was removed by centrifugation, and CEM-SS cells were resuspended in growth medium. If solvents were evaporated the cell concentration was 33,500 cells per ml so that 150 µl contained 5000 cells. If medium was the dilution vehicle then the cell concentration was 50,000 so that 100 µl contained 5000 cells. The total test volume for medium, cells, and virus was 200 µl.
# Store frozen at -20°C (0.1 to 0.2 ml per vial). Warm to 37°C as needed. […] PMS dilution for XTT medium: Dilute PMS stock from freezer 1:100 in PBS. Add 4% to medium. […] Formula for XTT/PMS solution for 1 plate (5 ml per plate)
# Dissolve XTT in medium, add PMS/PBS. Warm to 37°C for approximately 10 to 15 minutes to obtain an homogeneous solution. Add 50 µl per plate Incubate for 4 hours. Read A(450-650) nm. […] The data was processed to convert optical density readings to a percentage of inhibition compared to CEM-SS cells that have not been infected with HIV-1 virus. C = cells D = Drug or Sample M = Medium V = Virus
# % toxicity = 100 - [(((M + D + C) - M) ÷ ((M + C) - M)) * 100] [formula] % antiviral = ((M + D + C + V)-V-M)) ÷ ((M + D + C)-(V-M))) * 100 [formula]
# [5] = test system: CEM-SS cells; assay: XTT cytoprotection assay (Cytotoxic Assay), toxicity wells without virus; type: cell-based, human; details: Table VI, assay date
# Description: This assay is a measure of the viability of human T cell lines after infection with HIV in the presence of potential antiviral compounds. The results are assessed spectrophometrically by reading optical densities after the addition of XTT to determine if the viable cells reduced the pale yellow tetrazolium reagent (XTT) to an orange formazan product. This assay can be utilized for the initial screen of large numbers of samples. For the cytoprotection assay CEM-SS cells and HIV-1 RF strain of virus were used. Test samples were first diluted in an appropriate solvent, and 10 to 50 μl were transferred to the test plate. If the solvent was methanol or a similar solvent, the plates were allowed to evaporate. If medium was used for dilutions the plates were covered and the volume of test sample was taken into consideration when adding cells and virus. At each test concentration 50 μl of sample were added to three wells, one for toxicity tests, one for color control, and one for antiviral activity. Assuming the solvent was evaporated, 150 μl cells are added to all wells, except the control wells for medium only, so that the cell concentration per well was 5000. Then 50 μl of HIV-1 virus was added to each test well so that the M.O.I. was approximately 0.31. For toxicity tests 50 μl of medium were added to the control well. The plates were incubated in 5% CO2 for 6 days at 37°C. After incubation, the XTT solution was added to the plates, and after 4 hours incubation at 37°C the plates are covered with clear plastic sealers. Cell viability was measured by the visible light absorbance at 450 nm and a reference wavelength of 650 nm. Data were expressed as a percentage of formazan produced in drug test wells compared to formazan produced in wells of untreated control cells. CEM-SS cells were maintained with growth medium RPMI 1640, 10% fetal bovine serum, 2% L-glutamine (200 mM), and 50 μg/ml gentamicin in a 5% CO2 water-saturated atmosphere. Cells were maintained in the logarithmic growth state by subdividing cultures when the cell concentrations reach an upper limit of 1 x 10^6 cells per ml. […] Polybrene medium was removed by centrifugation, and CEM-SS cells were resuspended in growth medium. If solvents were evaporated the cell concentration was 33,500 cells per ml so that 150 μl contained 5000 cells. If medium was the dilution vehicle then the cell concentration was 50,000 so that 100 μl contained 5000 cells. The total test volume for medium, cells, and virus was 200 μl. Dissolve XTT in medium, add PMS/PBS. Warm to 37°C for approximately 10 to 15 minutes to obtain an homogeneous solution. Add 50 μl per plate Incubate for 4 hours. Read A(450-650) nm. B.2.5. Data processing After the plates were read spectrophotometrically the data was transferred via modem from the laboratory to the office. The data was processed to convert optical density readings to a percentage of inhibition compared to CEM-SS cells that have not been infected with HIV-1 virus. C = cells D = Drug or Sample M = Medium V = Virus M = medium only in well V = medium + CEM-SS cells + virus in well (M + C) = medium + CEM-SS cells (M + D) = medium + drug in well (M + D + C) = medium + drug + CEM-SS cell in well (M+D+C+V) = medium + drug + CEM-SS cells + virus in well.
# [6] = test system: HIV-1; assay: HIV-1 antiviral in vitro assays; type: cell-based
# [7] = test system: HIV-1 RF; assay: Syncytium-forming assay (Syncytia assay), antiviral activity; type: cell-based
# Text: To determine the HIV-1 viral titers the quantitative infectivity syncytium-forming assay described by P.L. Nara and P.J. Fischinger, "Quantitative Infectivity Assay for HIV-1 and -2," Nature, 332: 469 (1988)) was used. In this assay a single infectious unit of virus infects a single cell and initiates a focal cell change such as syncytium formation. Because a single infectious unit causes a single response, a linear relationship exists between the number of cytopathic effects caused by viral infection and the first order of virus concentration. This quantitative assay can be used to determine the titers of the HIV-1 in viral stocks, neutralization tests, and antiviral assays.
# The quantitative infectivity syncytium-forming assay is applied for the direct quantitation of fusigenic virus-infected cells. CEM-SS cells were used for the syncytium-forming assay. CEM-SS cell are human T4-lymphoblastoid cells of a cell line initially derived by G.E. Foley, et al., "Continuous Culture to Human Lymphoblasts from Peripheral Blood of a Child with Acute Leukemia," Cancer, 18: 522 (1965) and biologically cloned by Nara et al., supra. The cells for this assay were provided by Dr. Nara.
# CEM-SS cells were maintained in a growth medium of RPMI 1640, 10% fetal bovine serum, 1% L-glutamine (200 mM) and 50 µg/ml of gentamicin. CEM-SS cells grow in suspension. The cells have been cloned for both poly-L-lysine-induced adherence to microtiter plates and virus-induced syncytial and fusogenic sensitivity following infection with either cell-free or cell-associated HIV-1 and HIV-2. It has been determined that the cells are negative for virus including human retroviruses as determined by electron microscopy and reverse transcriptase analysis.
# A.4.1. Use 96-wells flat bottom tissue culture plates and score the bottoms of all wells into 4 quadrants. A.4.2. Add 50 µl/well of diluted poly-L-lysine. Prepare stock poly-L-lysine (Poly-L-lysine hydrobromide, Sigma catalog, cat. # P-1399) at 5 mg/ml and store at -20°C for future use. For the assay dilute the stock poly-L-lysine 1:100 using phosphate buffered saline (PBS). A.4.3. Incubate plates at room temperature for no less than 30 minutes. A.4.4. Remove poly-L-lysine from wells. A.4.5. Wash the plates with 100 µl/well of Dulbecco's PBS and remove the excess PBS. A.4.6. Dilute CEM-SS cells in a logarithmic state of growth to 0.5 x 10⁶ cells per ml in a serum free medium and add 1 µg/ml polybrene. Incubate the cell suspension at 37°C for 60 minutes. Centrifuge at 800 rpm for 10 minutes and decant the supernatant fluid. A.4.7. Dilute the treated CEM-SS cell suspension to 5.0 x 10⁵ cells. Add 100 µl to the test wells so that the final cell concentration is 50,000 cells per well. Make ten-fold dilutions of the viral stock. Add 50 µl to the test wells. Add 50 µl growth medium to bring the total test volume to 200 µl. On day 3 place a clear plastic film (plate sealers, Dynatech Laboratories, Inc., cat # 001-010-3501) over the microtiter wells and evaluate for syncytium forming units (SFU).
# as §1, with “wells.” for “wells. To determine if the test compounds have antiviral activity, compare the total number of SFU in the viral control to those enumerated in the test wells.”
# [8] = Table VI, Syncytia Assay, 06-29-94
# [9] = Human immunodeficiency virus 1, Table VI, Cytotoxic Assay, assay date, read-out: EC50 (converted)
# [10] = Homo sapiens, CEM-SS, read-out: IC50 (converted)
# [11] = Human immunodeficiency virus 1, Table VI, Syncytia Assay, 06-29-94, read-out: EC50 (converted)
# [12] = Table III, Syncytia Assay (M.O.I. = .005)
smiles,measurement,setting,value
CC1(C)CCC[C@@]2(C)[C@H](c3ccoc3)C(=O)[C@H]3O[C@@]312 (racemic) [PM-92131 (±)],EC50,"[1]; Human immunodeficiency virus 1, Table I, P24 ELISA",0.5 µg/mL
same,EC50,"[1]; Human immunodeficiency virus 1, Table III, p24 ELISA Assay",0.35 µg/mL
same,LD₅₀,[2],> 150 mg/kg
CC1(C)CCC[C@]2(C)[C@H](c3ccsc3)C(=O)[C@H]3O[C@@]312 (racemic) [PM-94116 & PM-94117 (1:1)],IC50,[3]; [8],11 µg/mL
same,EC50,[4]; [9],2.15 µg/mL
same,SI,"[4]; Table VI, Cytotoxic Assay",2
same,IC50,[5]; [10],4.35 µg/mL
same,HIV-1 antiviral activity (in words),[6],exhibit anti-HIV-1 activity
same,EC50,[7]; [11],1 µg/mL
same,SI,[7]; [8],11
CC1(C)CCC[C@@]2(C)[C@H](c3ccccc3)C(=O)[C@H]3O[C@@]312 (racemic) [PM-94118(±)],IC50,[3]; [8],20 µg/mL
same,EC50,[4]; [9],3 µg/mL
same,IC50,[5]; [10],9 µg/mL
same,IC50,[5],1.87 μg/200 μl
same,EC50,[7]; [11],2 µg/mL
same,SI,[7]; [8],10
CC1(C)CCC[C@@]2(C)[C@H](c3ccsc3)C(=O)[C@H]3O[C@@]312 (racemic) [SU-0096(±)],IC50,[5]; [10],4.5 µg/mL
"Cc1cn([C@H]2C[C@H](N=[N+]=[N-])[C@@H](CO)O2)c(=O)[nH]c1=O [AZT, 3'-azido-3'-deoxythymidine, reference compound]",EC50,"[4]; Human immunodeficiency virus 1, Table V, Cytoprotection Assay, MOI 0.037, read-out: EC₅₀",100 nM
same,EC50,"[4]; Human immunodeficiency virus 1, Table V, Cytoprotection Assay, MOI 0.074, read-out: EC₅₀",460 nM
same,EC50,"[4]; Human immunodeficiency virus 1, Table V, Cytoprotection Assay, MOI 0.149, read-out: EC₅₀",1300 nM
same,EC50,"[7]; Human immunodeficiency virus 1, Table IV, Syncytia Assay, MOI 0.002, read-out: EC₅₀",10 nM
same,EC50,"[7]; Human immunodeficiency virus 1, Table IV, Syncytia Assay, MOI 0.004, read-out: EC₅₀",10 nM
same,EC50,"[7]; Human immunodeficiency virus 1, Table IV, Syncytia Assay, MOI 0.008, read-out: EC₅₀",10 nM
same,EC50,"[7]; Human immunodeficiency virus 1, Table IV, Syncytia Assay, MOI 0.016, read-out: EC₅₀",70 nM
CC1(C)CCC[C@]2(C)[C@@H](c3ccoc3)C(=O)[C@@H]3O[C@]312 [PM-92131 (-)],IC50,[3]; [12],40 µg/mL
same,HIV-1 antiviral activity (in words),[6],active against HIV-1
same,EC50,"[7]; Human immunodeficiency virus 1, Table III, Syncytia Assay (M.O.I. = .005), read-out: EC50 (converted)",4 µg/mL
same,SI,[7]; [12],10
CC1(C)CCC[C@@]2(C)[C@@H](c3ccsc3)C(=O)[C@@H]3O[C@]312 [PM-94117],IC50,[3]; [8],15 µg/mL
same,IC50,[5]; [10],12.5 µg/mL
same,EC50,[7]; [11],1.2 µg/mL
same,SI,[7]; [8],13
